31 compounds from patent publication US7332501B2, “Indol-3-yl-carbonyl-spiro-piperidine derivatives as V1a receptor antagonists” (Hoffmann-La Roche Inc., priority 2005, dated 2008) can be followed below.

Structures can show the parent of a compound that is named as a salt.

A word on the Ki: it is a dissociation constant, usually derived from enzyme kinetics or from competition with a known ligand. A low value points to a stronger hold on the target.

The target in this assay is T1, human V1a receptor (Homo sapiens, UniProt P37288).
T1 construct: expressed in transfected cells; host or cells: HEK293 cells, transiently transfected; cell membranes
T1 sequence (P37288 whole entry): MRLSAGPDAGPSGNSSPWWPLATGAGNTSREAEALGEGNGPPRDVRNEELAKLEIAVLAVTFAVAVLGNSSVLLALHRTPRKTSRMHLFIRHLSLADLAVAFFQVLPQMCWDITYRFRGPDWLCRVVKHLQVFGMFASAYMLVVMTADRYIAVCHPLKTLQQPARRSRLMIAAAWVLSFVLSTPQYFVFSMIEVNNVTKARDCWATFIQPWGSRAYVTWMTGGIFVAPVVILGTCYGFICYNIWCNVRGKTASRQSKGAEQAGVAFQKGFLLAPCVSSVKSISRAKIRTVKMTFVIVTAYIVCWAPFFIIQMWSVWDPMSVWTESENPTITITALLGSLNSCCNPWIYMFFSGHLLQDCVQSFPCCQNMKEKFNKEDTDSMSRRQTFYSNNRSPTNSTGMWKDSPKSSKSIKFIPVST
As to the kind of experiment: human V1a receptor binding (3H-Vasopressin SPA, HEK293 membranes). Conditions: displacement of 4 nM 3H-Vasopressin, membranes of HEK293 cells transiently transfected with human V1a receptor; Ki from IC50 by Cheng-Prussoff. Put shortly: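 Ki derived by Cheng-Prusoff from IC50 curves normalised to specific binding. Serially diluted compounds (in 2% DMSO) competed with 3H-vasopressin (4 nM working solution) for 1 h at room temperature on SPA beads bearing membranes of transiently transfected HEK293 cells; unlabelled vasopressin defined non-specific counts.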
As for `Cc1c(C(=O)N2C[C@@H](C)[C@]3(OC(=O)c4ccccc43)[C@@H](C)C2)c2ccccc2n1Cc1ccccc1` [Example 281, (1R,3′R,5′S)-1′-[(1-Benzyl-2-methyl-1H-indol-3-yl)carbonyl]-3′,5′-dimethyl-3H-spiro[2-benzofuran-1,4′-piperidin]-3-one], the inhibition constant Ki was determined as 19.1 nM. In other words, the double-digit nanomolar range.
For `Cc1c(C(=O)N2CCC3(CC2)OC(=O)c2ccc(Cl)cc23)c2ccccc2n1Cc1ccccc1` [Example 10, 1′-[(1-benzyl-2-methyl-1H-indol-3-yl)carbonyl]-6-chloro-3H-spiro[2-benzofuran-1,4′-piperidin]-3-one], the affinity corresponds to a Ki of 12.7 nM.
Under `O=C1OC2(CCN(C(=O)c3cn(Cc4ccncc4)c4cc(Cl)ccc34)CC2)c2ccc(F)cc21` [Example 166, 1′-{[6-Chloro-1-(pyridin-4-ylmethyl)-1H-indol-3-yl]carbonyl}-5-fluoro-3H-spiro[2-benzofuran-1,4′-piperidin]-3-one] stands 2.4 nM; under `CC(C)(C)OC(=O)N1CCOC(Cn2cc(C(=O)N3CCC4(CC3)OC(=O)c3cc(F)ccc34)c3ccc(Cl)cc32)C1` (stereo not shown) [Example 199, tert-Butyl 2-({6-chloro-3-[(5-fluoro-3-oxo-1′H,3H-spiro[2-benzofuran-1,4′-piperidin]-1′-yl)carbonyl]-1H-indol-1-yl}methyl)morpholine-4-carboxylate], 3.3 nM; under `O=C1OC2(CCN(C(=O)c3cn(CC4CN(Cc5ccccc5)CCO4)c4cc(Cl)ccc34)CC2)c2ccc(F)cc21` (stereo not shown) [Example 177, 1′-({1-[(4-Benzylmorpholin-2-yl)methyl]-6-chloro-1H-indol-3-yl}carbonyl)-5-fluoro-3H-spiro[2-benzofuran-1,4′-piperidin]-3-one], 6.9 nM.
For `Cc1cc2c(C(=O)N3CCC4(CC3)OC(=O)c3ccccc34)cn(CC(=O)N(C)C)c2cc1Cl` [Example 120, 2-{6-Chloro-5-methyl-3-[(3-oxo-1′H,3H-spiro[2-benzofuran-1,4′-piperidin]-1′-yl)carbonyl]-1H-indol-1-yl}-N,N-dimethylacetamide] the value was 2.7 nM; for `CC(C)(C)OC(=O)N1CCOC(Cn2cc(C(=O)N3CCC4(CC3)OCc3ccccc34)c3ccc(Cl)cc32)C1` (stereo not shown) [Example 247, tert-Butyl 2-{[6-chloro-3-(1′H,3H-spiro[2-benzofuran-1,4′-piperidin]-1′-ylcarbonyl)-1H-indol-1-yl]methyl}morpholine-4-carboxylate], 2.3 nM; for “1′-({6-Chloro-1-[(2S)-pyrrolidin-2-ylmethyl]-1H-indol-3-yl}carbonyl)-3H-spiro[2-benzofuran-1,4′-piperidine [Example 267]”, 1.4 nM.
In turn, `O=C(c1cn(C(=O)N2CCCCC2)c2cc(Cl)ccc12)N1CCC2(CC1)OCc1ccccc12` [Example 208, 1′-{[6-Chloro-1-(piperidin-1-ylcarbonyl)-1H-indol-3-yl]carbonyl}-3H-spiro[2-benzofuran-1,4′-piperidine]] yielded an inhibition constant Ki of 2.6 nM. This Ki is about 1.9-fold higher than that of the compound before.
The compound `Cc1cc(Cn2cc(C(=O)N3CCC4(CC3)OC(=O)c3cc(F)ccc34)c3ccc(Cl)cc32)on1` [Example 184, 1′-({6-Chloro-1-[(3-methylisoxazol-5-yl)methyl]-1H-indol-3-yl}carbonyl)-5-fluoro-3H-spiro[2-benzofuran-1,4′-piperidin]-3-one] displayed a Ki of 3.4 nM.
With `CN(C)CCn1cc(C(=O)N2CCC3(CC2)OCc2ccccc23)c2ccc(Cl)cc21` [Example 210, 2-[6-Chloro-3-(1′H,3H-spiro[2-benzofuran-1,4′-piperidin]-1′-ylcarbonyl)-1H-indol-1-yl]-N,N-dimethylethanamine], the affinity, expressed as Ki, was 1 nM.
`CN(C)CCn1cc(C(=O)N2CCC3(CC2)OC(=O)c2cc(F)ccc23)c2ccc(Cl)cc21` [Example 111, 1′-({6-Chloro-1-[2-(dimethylamino)ethyl]-1H-indol-3-yl}carbonyl)-5-fluoro-3H-spiro[2-benzofuran-1,4′-piperidin]-3-one]: affinity was put at a Ki of 2.4 nM.
For the compound `O=C(c1cn(Cc2cc(F)cc(F)c2)c2cc(Cl)ccc12)N1CCC2(CC1)CNc1ccccc12` [Example 93], the affinity, expressed as Ki, was 13.8 nM.
Turning to `Cc1c(C(=O)N2CCC3(CC2)OC(=O)c2cc4c(cc23)OCO4)c2ccccc2n1Cc1ccccc1` [Example 34, 1′-[(1-benzyl-2-methyl-1H-indol-3-yl)carbonyl]-7H-spiro[furo[3,4-f][1,3]benzodioxole-5,4′-piperidin]-7-one], affinity was put at a Ki of 2.1 nM. This Ki lies about 6.6-fold lower than the previous one.
For `O=C(Cn1cc(C(=O)N2CCC3(CC2)OC(=O)c2ccccc23)c2ccc(Cl)cc21)c1ccccc1F` [Example 153, 1′-({6-Chloro-1-[2-(2-fluorophenyl)-2-oxoethyl]-1H-indol-3-yl}carbonyl)-3H-spiro[2-benzofuran-1,4′-piperidin]-3-one], the inhibitory constant (Ki) was found to be 1 nM.
Under `CN(C)CCNC(=O)Cn1cc(C(=O)N2CCC3(CC2)OCc2ccccc23)c2ccc(Cl)cc21` [Example 249, 2-[6-Chloro-3-(1′H,3H-spiro[2-benzofuran-1,4′-piperidin]-1′-ylcarbonyl)-1H-indol-1-yl]-N-[2-(dimethylamino)ethyl]acetamide] stands 2.4 nM.
As for `O=C(c1cn(CC2CCNC2)c2cc(Cl)ccc12)N1CCC2(CC1)OCc1ccccc12` (stereo not shown) [Example 266, 1′-{[6-Chloro-1-(pyrrolidin-3-ylmethyl)-1H-indol-3-yl]carbonyl}-3H-spiro[2-benzofuran-1,4′-piperidine]], the affinity, expressed as Ki, was 2.7 nM.
For `Cn1cncc1Cn1cc(C(=O)N2CCC3(CC2)OC(=O)c2cc(F)ccc23)c2ccc(Cl)cc21` [Example 183, 1′-({6-Chloro-1-[(1-methyl-1H-imidazol-5-yl)methyl]-1H-indol-3-yl}carbonyl)-5-fluoro-3H-spiro[2-benzofuran-1,4′-piperidin]-3-one] the value was 5.2 nM; for `O=C(Cn1cc(C(=O)N2CCC3(CC2)OCc2ccccc23)c2ccc(Cl)cc21)c1ccccc1F` [Example 224, 2-[6-Chloro-3-(1′H,3H-spiro[2-benzofuran-1,4′-piperidin]-1′-ylcarbonyl)-1H-indol-1-yl]-1-(2-fluorophenyl)ethanone], 1.3 nM.
For `CN1CCN(C(=O)Cn2cc(C(=O)N3CCC4(CC3)OC(=O)c3cc(F)ccc34)c3ccc(Cl)cc32)CC1` [Example 114, 1′-({6-Chloro-1-[2-(4-methylpiperazin-1-yl)-2-oxoethyl]-1H-indol-3-yl}carbonyl)-5-fluoro-3H-spiro[2-benzofuran-1,4′-piperidin]-3-one] the value was 1.3 nM; for `O=C1OC2(CCN(C(=O)c3cn(-c4cccc(F)c4)c4cc(Cl)ccc34)CC2)c2ccccc21` [Example 155, 1′-{[6-Chloro-1-(3-fluorophenyl)-1H-indol-3-yl]carbonyl}-3H-spiro[2-benzofuran-1,4′-piperidin]-3-one], 5 nM; for `O=C(c1cn(C(=O)c2cccc(F)c2)c2cc(Cl)ccc12)N1CCC2(CC1)OCc1ccccc12` [Example 214], 5.1 nM.
Take `O=C(c1cn(CCCN2CCOCC2)c2cc(Cl)ccc12)N1CCC2(CC1)OCc1ccccc12` [Example 257, 1′-{[6-Chloro-1-(3-morpholin-4-ylpropyl)-1H-indol-3-yl]carbonyl}-3H-spiro[2-benzofuran-1,4′-piperidine]]: the affinity corresponds to a Ki of 3.1 nM.
For `CN(C)C(=O)Cn1cc(C(=O)N2CCC3(CC2)OC(=O)c2ccccc23)c2ccc(Cl)cc21` [Example 106, 2-{6-Chloro-3-[(3-oxo-1′H,3H-spiro[2-benzofuran-1,4′-piperidin]-1′-yl)carbonyl]-1H-indol-1-yl}-N,N-dimethylacetamide] the value was 0.4 nM; for `CNCCn1cc(C(=O)N2CCC3(CC2)OCc2ccccc23)c2ccc(Cl)cc21` [Example 254, 2-[6-Chloro-3-(1′H,3H-spiro[2-benzofuran-1,4′-piperidin]-1′-ylcarbonyl)-1H-indol-1-yl]-N-methylethanamine], 1.9 nM.
Compound `CC(C)(C)OC(=O)Cn1cc(C(=O)N2CCC3(CC2)OC(=O)c2ccccc23)c2ccc(Cl)cc21` [Example 109, tert-Butyl {6-chloro-3-[(3-oxo-1′H,3H-spiro[2-benzofuran-1,4′-piperidin]-1′-yl)carbonyl]-1H-indol-1-yl}acetate] had an inhibitory constant (Ki) of 1.1 nM. Compared with the last compound, the Ki is about 1.7-fold lower.
Take `CC(C)(C)OC(=O)Cn1cc(C(=O)N2CCC3(CC2)OCc2ccccc23)c2ccc(Cl)cc21` [Example 209, tert-Butyl[6-chloro-3-(1′H,3H-spiro[2-benzofuran-1,4′-piperidin]-1′-ylcarbonyl)-1H-indol-1-yl]acetate]: the Ki was 1 nM.
Under `CNCCNC(=O)c1[nH]c2cc(Cl)ccc2c1C(=O)N1CCC2(CC1)OC(=O)c1cc(F)ccc12` [Example 194, 6-Chloro-3-[(5-fluoro-3-oxo-1′H,3H-spiro[2-benzofuran-1,4′-piperidin]-1′-yl)carbonyl]-N-[2-(methylamino)ethyl]-1H-indole-2-carboxamide hydrochloride] stands 15.1 nM.
For `O=C1OC2(CCN(C(=O)c3cn(Cc4cnccn4)c4cc(Cl)ccc34)CC2)c2ccc(F)cc21` [Example 173, 1′-{[6-Chloro-1-(pyrazin-2-ylmethyl)-1H-indol-3-yl]carbonyl}-5-fluoro-3H-spiro[2-benzofuran-1,4′-piperidin]-3-one] the value was 2.3 nM; for `O=C(c1c[nH]c2cc(Cl)ccc12)N1CCC2(CC1)C(=O)Nc1ccc(Br)cc12` [Example 280, 5-Bromo-1′-[(6-chloro-1H-indol-3-yl)carbonyl]spiro[indole-3,4′-piperidin]-2(1H)-one], 67.6 nM.
As for `CCC(C)C(=O)c1[nH]c2ccccc2c1C(=O)N1CCC2(CC1)OCc1ccccc12` (stereo not shown) [Example 72, 2-methyl-1-[3-(1′H,3H-spiro[2-benzofuran-1,4′-piperidin]-1′-ylcarbonyl)-1H-indol-2-yl]butan-1-one], the Ki is 2.9 nM.
